Measurements taken from ChEMBL document CHEMBL2311250 (Bioorg Med Chem Lett, 2013).
≈ marks a conversion by molar mass, not a printed value.

Tests used:
[1] = Half life in human liver microsomes; type: ADME, Microsome
[2] = Permeability of the compound by PAMPA; type: ADME; settings: read-out: permeability
[3] = Aqueous solubility of the compound at ph 6.5; type: physicochemical
hERG (KCNH2) = hERG (KCNH2) (Homo sapiens, UniProt Q12809); assay: Displacement of [3H]dofetilide from human ERG at 10 uM; settings: probe [3H]dofetilide
[4] = Half life in rat liver microsomes; type: ADME, Microsome
[5] = biological target: T1, Tyrosine-protein kinase receptor TYRO3 (Homo sapiens, UniProt Q06418); assay: Inhibition of Sky (unknown origin) by ELISA kinase assay in presence of 60 uM ATP
T1 sequence (Q06418 whole entry): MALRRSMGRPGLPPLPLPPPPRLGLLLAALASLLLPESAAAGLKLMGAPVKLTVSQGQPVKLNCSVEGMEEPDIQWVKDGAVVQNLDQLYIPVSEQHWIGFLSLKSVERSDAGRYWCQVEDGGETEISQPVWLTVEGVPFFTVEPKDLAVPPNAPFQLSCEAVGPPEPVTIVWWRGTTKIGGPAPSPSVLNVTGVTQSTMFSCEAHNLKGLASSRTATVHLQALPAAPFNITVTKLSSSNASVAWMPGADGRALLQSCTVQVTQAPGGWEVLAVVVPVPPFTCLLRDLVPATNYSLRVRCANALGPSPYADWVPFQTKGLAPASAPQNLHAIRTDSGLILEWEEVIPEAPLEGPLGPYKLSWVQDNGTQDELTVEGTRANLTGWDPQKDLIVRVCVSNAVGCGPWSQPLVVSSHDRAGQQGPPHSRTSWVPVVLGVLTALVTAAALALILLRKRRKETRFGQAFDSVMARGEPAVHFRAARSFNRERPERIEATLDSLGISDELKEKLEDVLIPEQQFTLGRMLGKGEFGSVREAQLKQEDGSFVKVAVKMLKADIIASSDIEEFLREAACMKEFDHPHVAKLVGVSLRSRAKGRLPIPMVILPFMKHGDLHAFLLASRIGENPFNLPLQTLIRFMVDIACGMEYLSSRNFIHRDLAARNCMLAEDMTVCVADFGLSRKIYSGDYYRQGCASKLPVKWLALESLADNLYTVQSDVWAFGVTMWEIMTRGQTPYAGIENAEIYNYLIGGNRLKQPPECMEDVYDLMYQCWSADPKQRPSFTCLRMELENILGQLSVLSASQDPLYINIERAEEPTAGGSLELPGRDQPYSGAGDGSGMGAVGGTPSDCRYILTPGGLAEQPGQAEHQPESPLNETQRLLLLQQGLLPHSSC

[6] = biological target: Dual specificity protein kinase CLK1 (Homo sapiens, UniProt P49759); assay: Inhibition of CLK1 (unknown origin) in presence of ATP
[7] = Volume of distribution at steady state in Sprague-Dawley rat at 1 mg/kg, iv and 5 mg/kg, po; type: ADME, organism-based; settings: in vivo, read-out: Vdss
[8] = Oral bioavailability in Sprague-Dawley rat at 5 mg/kg; type: ADME, organism-based; settings: in vivo
[9] = biological target: Casein kinase I isoform delta (Homo sapiens, UniProt P48730); assay: Inhibition of CK1-delta (unknown origin) in presence of ATP
[10] = biological target: Myosin light chain kinase 2, skeletal/cardiac muscle (Homo sapiens, UniProt Q9H1R3); assay: Inhibition of MYLK2 (unknown origin) in presence of ATP
[11] = biological target: Mitogen-activated protein kinase kinase kinase kinase 4 (Homo sapiens, UniProt O95819); assay: Inhibition of MAP4K4 (unknown origin) in presence of ATP
[12] = biological target: Tyrosine-protein kinase Lck (Homo sapiens, UniProt P06239); assay: Inhibition of LCK (unknown origin) in presence of ATP
[13] = Half life in Sprague-Dawley rat at 1 mg/kg, iv and 5 mg/kg, po; type: ADME, organism-based; settings: in vivo
[14] = Clearance in Sprague-Dawley rat at 1 mg/kg, iv and 5 mg/kg, po; type: ADME, organism-based; settings: in vivo
[15] = biological target: Mitogen-activated protein kinase kinase kinase 9 (Homo sapiens, UniProt P80192); assay: Inhibition of MAP3K9 (unknown origin) in presence of ATP
Platelet = assay: Inhibition of platelet aggregation (unknown origin); type: functional, cell-based
[16] = Cmax in Sprague-Dawley rat at 1 mg/kg, iv and 5 mg/kg, po; type: ADME, organism-based; settings: in vivo
CYP2D6 = CYP2D6 (Homo sapiens, UniProt P10635); assay: Inhibition of CYP2D6 (unknown origin) at 3 uM; type: ADME
[17] = biological target: Tyrosine-protein kinase ABL1 (Homo sapiens, UniProt P00519); assay: Inhibition of ABL (unknown origin) in presence of ATP
[18] = AUC in Sprague-Dawley rat at 1 mg/kg, iv and 5 mg/kg, po; type: ADME, organism-based; settings: plasma
[19] = biological target: Calcium/calmodulin-dependent protein kinase type 1 (Homo sapiens, UniProt Q14012); assay: Inhibition of CAMK1 (unknown origin) in presence of ATP

CYP2D6, sequence (P10635 whole entry): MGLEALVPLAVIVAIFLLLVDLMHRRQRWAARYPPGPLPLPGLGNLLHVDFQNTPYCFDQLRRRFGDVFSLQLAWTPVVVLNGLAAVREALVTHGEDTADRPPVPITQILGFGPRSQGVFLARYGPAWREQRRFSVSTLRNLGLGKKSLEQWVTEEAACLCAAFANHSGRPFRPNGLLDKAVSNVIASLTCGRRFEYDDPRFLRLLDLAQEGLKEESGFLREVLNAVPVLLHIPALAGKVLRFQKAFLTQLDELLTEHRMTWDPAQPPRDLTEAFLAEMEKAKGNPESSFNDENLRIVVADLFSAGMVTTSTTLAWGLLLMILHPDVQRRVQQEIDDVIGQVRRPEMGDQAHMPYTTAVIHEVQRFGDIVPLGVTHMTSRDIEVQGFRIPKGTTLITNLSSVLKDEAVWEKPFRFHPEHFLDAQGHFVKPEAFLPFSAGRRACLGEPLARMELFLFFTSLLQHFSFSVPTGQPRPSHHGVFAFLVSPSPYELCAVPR
hERG (KCNH2), sequence (Q12809 whole entry): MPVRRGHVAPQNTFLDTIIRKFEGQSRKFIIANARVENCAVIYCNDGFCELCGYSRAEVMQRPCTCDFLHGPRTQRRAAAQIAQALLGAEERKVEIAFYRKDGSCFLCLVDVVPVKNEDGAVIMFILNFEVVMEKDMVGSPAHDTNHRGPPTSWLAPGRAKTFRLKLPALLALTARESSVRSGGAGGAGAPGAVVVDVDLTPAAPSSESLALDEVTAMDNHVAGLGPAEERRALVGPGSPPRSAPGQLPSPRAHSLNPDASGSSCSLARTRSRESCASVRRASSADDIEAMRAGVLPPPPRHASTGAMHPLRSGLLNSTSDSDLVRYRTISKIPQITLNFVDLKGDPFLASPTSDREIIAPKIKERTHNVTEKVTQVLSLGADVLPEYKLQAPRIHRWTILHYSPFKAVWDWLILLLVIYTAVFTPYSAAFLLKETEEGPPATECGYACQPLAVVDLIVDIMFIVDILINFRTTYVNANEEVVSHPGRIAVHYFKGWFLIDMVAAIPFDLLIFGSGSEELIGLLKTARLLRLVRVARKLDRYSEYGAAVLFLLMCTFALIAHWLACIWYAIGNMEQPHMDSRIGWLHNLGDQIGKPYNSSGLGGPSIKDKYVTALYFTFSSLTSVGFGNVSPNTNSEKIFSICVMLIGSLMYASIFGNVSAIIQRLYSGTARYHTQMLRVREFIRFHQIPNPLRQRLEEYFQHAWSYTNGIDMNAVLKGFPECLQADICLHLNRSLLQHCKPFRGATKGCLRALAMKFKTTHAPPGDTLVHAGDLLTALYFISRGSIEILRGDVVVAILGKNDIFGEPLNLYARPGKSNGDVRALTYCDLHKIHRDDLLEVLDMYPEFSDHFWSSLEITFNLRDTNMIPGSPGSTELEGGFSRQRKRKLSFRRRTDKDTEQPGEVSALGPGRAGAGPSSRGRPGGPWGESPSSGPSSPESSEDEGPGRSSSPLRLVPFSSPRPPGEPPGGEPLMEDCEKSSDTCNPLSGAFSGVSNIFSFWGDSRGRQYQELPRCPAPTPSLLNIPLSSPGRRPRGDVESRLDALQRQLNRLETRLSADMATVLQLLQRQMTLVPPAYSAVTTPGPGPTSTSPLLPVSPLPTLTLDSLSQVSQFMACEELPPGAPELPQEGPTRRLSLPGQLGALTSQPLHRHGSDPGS
Myosin light chain kinase 2, skeletal/cardiac muscle, sequence (Q9H1R3 whole entry): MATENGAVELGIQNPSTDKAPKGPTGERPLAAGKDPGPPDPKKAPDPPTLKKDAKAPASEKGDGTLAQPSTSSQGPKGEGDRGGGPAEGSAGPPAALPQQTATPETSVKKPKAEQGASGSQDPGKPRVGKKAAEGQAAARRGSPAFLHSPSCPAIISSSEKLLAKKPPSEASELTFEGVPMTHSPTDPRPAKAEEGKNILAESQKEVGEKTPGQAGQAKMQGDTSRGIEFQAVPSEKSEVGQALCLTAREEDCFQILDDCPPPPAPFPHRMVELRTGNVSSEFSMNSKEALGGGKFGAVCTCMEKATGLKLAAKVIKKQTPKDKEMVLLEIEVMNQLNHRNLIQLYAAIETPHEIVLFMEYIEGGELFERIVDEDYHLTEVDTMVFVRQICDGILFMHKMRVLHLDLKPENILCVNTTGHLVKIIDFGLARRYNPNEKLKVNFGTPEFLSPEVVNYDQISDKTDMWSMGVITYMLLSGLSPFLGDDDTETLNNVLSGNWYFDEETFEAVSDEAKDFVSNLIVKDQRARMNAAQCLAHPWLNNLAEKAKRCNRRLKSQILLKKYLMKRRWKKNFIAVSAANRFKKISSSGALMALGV
Tyrosine-protein kinase ABL1, sequence (P00519 whole entry): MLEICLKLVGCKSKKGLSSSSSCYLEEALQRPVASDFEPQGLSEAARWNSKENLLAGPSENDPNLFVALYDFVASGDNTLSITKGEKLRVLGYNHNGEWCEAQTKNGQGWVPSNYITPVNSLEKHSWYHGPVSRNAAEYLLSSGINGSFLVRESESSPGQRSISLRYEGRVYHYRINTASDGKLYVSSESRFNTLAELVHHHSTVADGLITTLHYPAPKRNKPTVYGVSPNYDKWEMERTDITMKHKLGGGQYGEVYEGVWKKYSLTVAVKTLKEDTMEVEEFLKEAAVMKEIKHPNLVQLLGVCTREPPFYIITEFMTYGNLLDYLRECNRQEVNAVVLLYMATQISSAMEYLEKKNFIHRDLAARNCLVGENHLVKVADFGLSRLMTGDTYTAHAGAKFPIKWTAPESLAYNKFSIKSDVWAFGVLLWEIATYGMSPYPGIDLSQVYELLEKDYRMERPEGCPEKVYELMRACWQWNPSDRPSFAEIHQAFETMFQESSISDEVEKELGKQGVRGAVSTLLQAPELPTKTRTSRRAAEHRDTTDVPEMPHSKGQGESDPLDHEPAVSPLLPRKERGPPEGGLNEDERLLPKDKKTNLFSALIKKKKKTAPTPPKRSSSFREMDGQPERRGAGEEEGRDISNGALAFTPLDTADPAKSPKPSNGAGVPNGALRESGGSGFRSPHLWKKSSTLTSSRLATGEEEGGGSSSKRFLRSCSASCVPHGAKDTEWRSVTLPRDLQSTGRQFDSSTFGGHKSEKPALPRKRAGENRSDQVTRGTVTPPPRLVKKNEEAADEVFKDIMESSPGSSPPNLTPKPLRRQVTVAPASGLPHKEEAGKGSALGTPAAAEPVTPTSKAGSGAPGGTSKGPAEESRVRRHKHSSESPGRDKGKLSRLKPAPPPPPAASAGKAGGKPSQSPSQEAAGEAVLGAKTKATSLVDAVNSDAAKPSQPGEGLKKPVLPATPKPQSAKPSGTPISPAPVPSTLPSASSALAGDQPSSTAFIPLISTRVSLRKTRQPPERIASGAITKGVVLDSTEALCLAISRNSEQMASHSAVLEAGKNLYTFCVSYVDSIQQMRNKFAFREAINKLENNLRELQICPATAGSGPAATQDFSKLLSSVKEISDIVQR
Tyrosine-protein kinase Lck, sequence (P06239 whole entry): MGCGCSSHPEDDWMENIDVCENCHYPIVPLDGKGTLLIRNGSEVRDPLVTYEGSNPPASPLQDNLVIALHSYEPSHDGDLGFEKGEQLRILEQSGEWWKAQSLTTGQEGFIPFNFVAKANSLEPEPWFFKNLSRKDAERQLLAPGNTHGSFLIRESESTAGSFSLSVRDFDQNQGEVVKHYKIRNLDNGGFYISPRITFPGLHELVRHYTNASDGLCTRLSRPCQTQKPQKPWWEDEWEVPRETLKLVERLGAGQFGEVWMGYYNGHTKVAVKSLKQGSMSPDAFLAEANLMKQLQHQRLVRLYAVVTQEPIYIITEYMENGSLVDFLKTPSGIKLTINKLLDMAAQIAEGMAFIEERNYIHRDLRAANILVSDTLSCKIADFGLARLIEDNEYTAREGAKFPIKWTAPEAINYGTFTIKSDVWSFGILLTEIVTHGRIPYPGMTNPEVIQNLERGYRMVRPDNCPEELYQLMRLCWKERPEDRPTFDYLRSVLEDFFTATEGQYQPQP
Mitogen-activated protein kinase kinase kinase 9, sequence (P80192 whole entry): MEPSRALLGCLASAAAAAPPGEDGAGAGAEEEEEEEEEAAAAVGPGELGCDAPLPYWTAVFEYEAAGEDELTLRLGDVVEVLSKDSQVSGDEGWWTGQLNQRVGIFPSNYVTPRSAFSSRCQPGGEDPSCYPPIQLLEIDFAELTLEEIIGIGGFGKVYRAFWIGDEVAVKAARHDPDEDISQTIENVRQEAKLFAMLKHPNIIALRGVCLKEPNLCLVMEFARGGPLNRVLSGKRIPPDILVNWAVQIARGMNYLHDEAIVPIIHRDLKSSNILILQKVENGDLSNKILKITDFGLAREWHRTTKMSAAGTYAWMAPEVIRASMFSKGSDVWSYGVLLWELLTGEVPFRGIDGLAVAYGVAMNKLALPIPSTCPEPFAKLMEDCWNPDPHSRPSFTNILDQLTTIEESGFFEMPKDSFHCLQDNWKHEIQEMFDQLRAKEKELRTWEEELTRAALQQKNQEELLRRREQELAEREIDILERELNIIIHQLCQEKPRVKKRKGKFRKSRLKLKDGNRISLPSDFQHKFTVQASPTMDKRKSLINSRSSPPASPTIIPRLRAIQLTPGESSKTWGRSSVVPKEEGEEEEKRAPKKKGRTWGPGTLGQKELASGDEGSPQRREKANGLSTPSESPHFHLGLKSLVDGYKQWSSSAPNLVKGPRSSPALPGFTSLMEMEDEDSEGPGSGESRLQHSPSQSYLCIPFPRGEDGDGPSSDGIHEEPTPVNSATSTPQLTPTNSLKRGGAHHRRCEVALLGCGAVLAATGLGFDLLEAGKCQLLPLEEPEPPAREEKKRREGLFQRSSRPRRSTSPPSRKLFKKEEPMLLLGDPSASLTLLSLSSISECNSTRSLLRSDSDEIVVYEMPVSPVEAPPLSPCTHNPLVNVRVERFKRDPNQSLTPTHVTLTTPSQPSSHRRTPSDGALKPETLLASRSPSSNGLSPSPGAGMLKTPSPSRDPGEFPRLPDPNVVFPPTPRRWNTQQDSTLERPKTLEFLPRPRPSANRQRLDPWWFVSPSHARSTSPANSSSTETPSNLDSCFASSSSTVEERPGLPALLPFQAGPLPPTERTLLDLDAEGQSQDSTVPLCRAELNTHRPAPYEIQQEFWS

## CN1CCC(NC(=O)c2cnc(NCc3cc(Cl)ccc3Cl)nc2NC2CCC(N(C)C)CC2)CC1 (stereo unspecified)
[1]
  half-life: 23 min
[2]
  Papp: 2 ×10⁻⁶ cm/s
[3]
  solubility: 89 µM (≈ 47.6 µg/mL)
hERG (KCNH2)
  inhibition at 10 µM: 1.6%
[4]
  half-life: 57 min
[5]
  IC50: 0.041 µM

## CN1CCC(NC(=O)c2cnc(Nc3cc(Cl)cc(Cl)c3)nc2N[C@@H]2COC[C@H]2O)CC1
[6]
  IC50: 11.2 µM
[1]
  half-life: 74 min
[2]
  Papp: 1.4 ×10⁻⁶ cm/s
[3]
  solubility: 40 µM (≈ 19.3 µg/mL)
[7]
  Vd: 2.7 L/kg
hERG (KCNH2)
  inhibition at 10 µM: 0.98%
[8]
  bioavailability: 0%
[9]
  IC50: 4.5 µM
[10]
  IC50: 24.9 µM
[11]
  IC50: 2.48 µM
[12]
  IC50: 3.68 µM
[13]
  half-life: 780 min
[14]
  clearance: 55 mL/min/kg
[4]
  half-life: 60 min
[15]
  IC50: 13.4 µM
[5]
  IC50: 0.01 µM
Platelet
  IC50: 9.6 µM

## CN1CCC(NC(=O)c2cnc(NCc3cc(Cl)ccc3Cl)nc2NC2CCNCC2)CC1
[1]
  half-life: 38 min
[2]
  Papp: < 0.1 ×10⁻⁶ cm/s
[3]
  solubility: 200 µM (≈ 98.5 µg/mL)
[7]
  Vd: 0.4 L/kg
hERG (KCNH2)
  inhibition at 10 µM: > 50%
[8]
  bioavailability: 0%
[13]
  half-life: 12 min
[16]
  Cmax: 25 ng/mL
[14]
  clearance: 40 mL/min/kg
[4]
  half-life: 60 min
[5]
  IC50: 0.19 µM
Platelet
  IC50: 8.5 µM

## COc1ccccc1CNc1ncc(C(=O)NCCNC(C)=O)c(NC2CCCC2)n1
[1]
  half-life: 5 min
[2]
  Papp: 1.9 ×10⁻⁶ cm/s
[3]
  solubility: 7.8 µM (≈ 3.33 µg/mL)
hERG (KCNH2)
  inhibition at 10 µM: 35%
[5]
  IC50: 0.38 µM

## O[C@@H]1COC[C@H]1Nc1nc(Nc2cc(Cl)cc(Cl)c2)ncc1-c1ccc(F)cc1
[1]
  half-life: 48 min
[2]
  Papp: < 0.01 ×10⁻⁶ cm/s
[3]
  solubility: 200 µM (≈ 87.1 µg/mL)
hERG (KCNH2)
  inhibition at 10 µM: 2.7%
CYP2D6
  inhibition at 3 µM: 24%
[4]
  half-life: 60 min
[5]
  IC50: 0.15 µM

## CN1CCC(NC(=O)c2cnc(Nc3cc(Cl)cc(Cl)c3)nc2N[C@H]2CCCCNC2=O)CC1
[1]
  half-life: 41 min
[2]
  Papp: 0.2 ×10⁻⁶ cm/s
[3]
  solubility: 2.3 µM (≈ 1.16 µg/mL)
hERG (KCNH2)
  inhibition at 10 µM: 4%
[5]
  IC50: 0.006 µM

## COc1ccccc1CNc1ncc(C(=O)NCCCO)c(NC2CCCC2)n1
[1]
  half-life: 11 min
[2]
  Papp: 0.9 ×10⁻⁶ cm/s
[3]
  solubility: 7.8 µM (≈ 3.12 µg/mL)
hERG (KCNH2)
  inhibition at 10 µM: 35%
[5]
  IC50: 0.16 µM
Platelet
  IC50: 46 µM

## O=C(NCCCN1CCCC1=O)c1cnc(NCc2cc(Cl)ccc2Cl)nc1NC1CCCC1
[2]
  Papp: 0.1 ×10⁻⁶ cm/s
[3]
  solubility: 3.9 µM (≈ 1.97 µg/mL)
hERG (KCNH2)
  inhibition at 10 µM: 23%
[4]
  half-life: 4 min
Platelet
  IC50: 28 µM

## Cc1cc(-c2cnc(Nc3cc(Cl)cc(Cl)c3)nc2NC2CCNCC2)on1
[1]
  half-life: 21 min
[2]
  Papp: 0.2 ×10⁻⁶ cm/s
[3]
  solubility: 5.2 µM (≈ 2.18 µg/mL)
hERG (KCNH2)
  inhibition at 10 µM: 1.3%
CYP2D6
  inhibition at 3 µM: 81%
[4]
  half-life: 3 min
[5]
  IC50: 0.092 µM

## COc1ccccc1CNc1ncc(C(=O)NCCCCN(C)C)c(NC2CCCC2)n1
[1]
  half-life: 40 min
[3]
  solubility: 200 µM (≈ 88.1 µg/mL)
hERG (KCNH2)
  inhibition at 10 µM: 28%
[5]
  IC50: 0.5 µM
Platelet
  IC50: 24 µM

## CN1CCC(NC(=O)c2cnc(Nc3cc(Cl)cc(Cl)c3)nc2NC2CCOCC2)CC1
[1]
  half-life: 35 min
[2]
  Papp: < 0.1 ×10⁻⁶ cm/s
[3]
  solubility: 40 µM (≈ 19.2 µg/mL)
[5]
  IC50: 0.009 µM

## CC[C@@H](CO)Nc1nc(Nc2cc(Cl)cc(Cl)c2)ncc1C(=O)NC1CCN(C)CC1
[1]
  half-life: 37 min
[2]
  Papp: 2 ×10⁻⁶ cm/s
[3]
  solubility: 3.5 µM (≈ 1.64 µg/mL)
hERG (KCNH2)
  inhibition at 10 µM: 3.4%
[5]
  IC50: 0.003 µM

## COc1ccccc1CNc1ncc(C(=O)NCCc2nnn[nH]2)c(NC2CCCC2)n1
[1]
  half-life: 60 min
[2]
  Papp: 21 ×10⁻⁶ cm/s
[3]
  solubility: 12 µM (≈ 5.25 µg/mL)
hERG (KCNH2)
  inhibition at 10 µM: 79%
[4]
  half-life: 22 min
[5]
  IC50: 1.3 µM

## COc1ccccc1CNc1ncc(C(=O)NC2CCN(C)CC2)c(NC2CCCC2)n1
[1]
  half-life: 34 min
[17]
  IC50: 21.1 µM
[2]
  Papp: 1.2 ×10⁻⁶ cm/s
[3]
  solubility: 80 µM (≈ 35.1 µg/mL)
[7]
  Vd: 18 L/kg
hERG (KCNH2)
  inhibition at 10 µM: 27%
[8]
  bioavailability: 41%
[12]
  IC50: 15 µM
[13]
  half-life: 210 min
[16]
  Cmax: 74 ng/mL
[14]
  clearance: 73 mL/min/kg
[4]
  half-life: 56 min
[5]
  IC50: 0.52 µM
Platelet
  IC50: 8.8 µM
[18]
  AUC: 302 ng·h/mL

## CN1CCC(NC(=O)c2cnc(Nc3cc(Cl)cc(Cl)c3)nc2NC2CCC(N(C)C)CC2)CC1 (stereo unspecified)
[6]
  IC50: 3.45 µM
[1]
  half-life: 120 min
[17]
  IC50: 7.61 µM
[2]
  Papp: 0.3 ×10⁻⁶ cm/s
[3]
  solubility: 200 µM (≈ 104 µg/mL)
hERG (KCNH2)
  inhibition at 10 µM: 6.7%
[10]
  IC50: 8.27 µM
[11]
  IC50: 0.12 µM
[19]
  IC50: 19.7 µM
[4]
  half-life: 60 min
[15]
  IC50: 12.2 µM
[5]
  IC50: 0.002 µM
Platelet
  IC50: 1.4 µM

## O=C(NCCCN1CCOC1=O)c1cnc(NCc2cc(Cl)ccc2Cl)nc1NC1CCCC1
[3]
  solubility: 1.3 µM (≈ 0.66 µg/mL)
hERG (KCNH2)
  inhibition at 10 µM: 33%
[4]
  half-life: < 5 min
Platelet
  IC50: 29 µM

## O[C@@H]1COC[C@H]1Nc1nc(Nc2cc(Cl)cc(Cl)c2)ncc1Br
[1]
  half-life: 30 min
[2]
  Papp: 0.3 ×10⁻⁶ cm/s
[3]
  solubility: 5.2 µM (≈ 2.18 µg/mL)
hERG (KCNH2)
  inhibition at 10 µM: > 100%
CYP2D6
  inhibition at 3 µM: 1%
[4]
  half-life: 31 min
[5]
  IC50: 0.015 µM

## COc1ccccc1CNc1ncc(C(=O)NCCCN2CCCC2=O)c(NC2CCCC2)n1
[2]
  Papp: 1.5 ×10⁻⁶ cm/s
[3]
  solubility: 81.6 µM (≈ 38.1 µg/mL)
hERG (KCNH2)
  inhibition at 10 µM: 7%
[4]
  half-life: 16 min
Platelet
  IC50: 46 µM

## O[C@@H]1COC[C@H]1Nc1nc(Nc2cc(Cl)cc(Cl)c2)ncc1-c1cccnc1
[1]
  half-life: 120 min
[2]
  Papp: 1 ×10⁻⁶ cm/s
[3]
  solubility: 200 µM (≈ 83.7 µg/mL)
hERG (KCNH2)
  inhibition at 10 µM: 1.5%
CYP2D6
  inhibition at 3 µM: 88%
[4]
  half-life: 31 min
[5]
  IC50: 0.044 µM
